Measurements as given in patent US20240299377A1, “METHODS AND COMPOSITIONS FOR TREATING IRON DISORDERS” (BeyondSpring Pharmaceuticals, Inc., priority 2019, published 2024).

Tested on: plasma haptoglobin levels
Assay: Plasma haptoglobin levels in non-metastatic breast cancer patients receiving TAC plus plinabulin (hematology safety assessments)
Assay type: in vivo, human
Text: Method. Non-metastatic Breast Cancer patients receiving TAC (taxotere, doxorubicin, cyclophosphamide) also received plinabulin at a dose of 10 (n=15), 20 (n=15) or 30 (n=12) mg/m^2. Hematology safety assessments were done at predose, and post-dose plinabulin at Day 2, 3, 6, 7, 8, 9, 10, 11, 12, 13 and 15, as predefined prospectively per protocol. Plinabulin was given on Day 1 as a single dose per 21-day cycle.

## CC(C)(C)c1[nH]cnc1/C=c1\[nH]c(=O)/c(=C/c2ccccc2)[nH]c1=O [Plinabulin, (3Z,6Z)-3-Benzylidene-6-{[5-(2-methyl-2-propanyl)-1H-imidazol-4-yl]methylene}-2,5-piperazinedione]
30 mg/m^2 vs lower doses (10, 20 mg/m^2), p<0.01
  dose comparison for increasing plasma haptoglobin levels: most effective dose
Plinabulin 30 mg/m^2 single dose on Day 1 of 21-day cycle with TAC, baseline mean (SD) 1.32 (0.453) g/L, p<0.0005
  mean (SD) increase of maximum haptoglobin levels from baseline: 1.61 (1.29) g/L
Plinabulin 30 mg/m^2 single dose, versus baseline
  fold increase of maximum haptoglobin levels: more than 2 fold
Single dose 30 mg/m^2, FIG. 1
  duration of haptoglobin increase: > 3 weeks
Single dose 30 mg/m^2, P<0.03
  time to haptoglobin (Hp) increase after plinabulin dosing: ≤ 2 days
